# Source: article PMC8922279, “Identification of β-Lactams Active against Mycobacterium tuberculosis by a Consortium of Pharmaceutical Companies and Academic Institutions” (ACS Infectious Diseases, 2022)
# Read-outs that look alike come from different tables or passages of the source.
# Key:
# in vivo [1] = conditions: DHP-1 knockout, mouse, sc, 300 mg/kg
# in vitro [2] = conditions: human, plasma, Plasma stability % Remaining
# in vitro [3] = conditions: human; for Papp A→B at 120 min, 3 μM / Papp B→A at 120 min, 3 μM: Caco-2, pH 7.4
# in vivo [4] = conditions: female, 129sv DHP-1 knockout, mouse, sc, 50 mg/kg
# S. aureus = experiment: Microbial spectrum, S. aureus; type: cell-based, Staphylococcus aureus; conditions: clavulanate 4 μg/mL; Table S4
# HepG2 cells = experiment: Cytotoxicity against HepG2 cells (CellTiter-Glo); type: cell-based, human; conditions: Table S4
# Procedure: Compounds were tested for cytotoxicity against HepG2 cells as previously described.[48],[69],[70] Briefly, cells were exposed to compounds for 48–72 h, and viability was measured using CellTiter-Glo (Promega).
# in vitro [5] = conditions: SD, rat, plasma, Plasma stability % Remaining
# in vitro [6] = conditions: SD, rat, plasma, pH 7.4, % bound to plasma
# in vitro [7] = conditions: beagle, dog, plasma, pH 7.4
# Mtb H37Rv [8] = experiment: MIC90 against replicating (R) Mtb H37Rv, with or without clavulanate; type: cell-based, Mycobacterium tuberculosis; conditions: Table S4; for Mtb H37Rv R + CLAV (MIC90): clavulanate 4 μg/mL; for Mtb H37Rv R (MIC90): no clavulanate
# in vitro [9] = conditions: CD-1, mouse, plasma, pH 7.4, % bound to plasma
# wild-type Mtb H37Rv = type: in vivo, 129sv DHP-1 knockout mice; conditions: for Log10 CFU per mouse (lungs), Mean: 50 mg/kg sc bid + clavulanate 100 mg/kg po bid, days 9-15, lungs day 16, untreated day 16 mean 9.1
# physchem [10] = conditions: simulated gi fluid, pH 6.5, FaSSIF Stability, % remaining
# in vitro [11] = conditions: human, plasma, pH 7.4, % bound to plasma
# [12] = female, 129sv DHP-1 knockout, mouse, in vivo
# in vivo [13] = conditions: female, CD-1, mouse
# in vitro [14] = conditions: cynomolgus monkey, plasma, pH 7.4
# Mtb H37Rv [15] = experiment: MIC90 against nonreplicating (NR, 4-stress) Mtb H37Rv, with or without clavulanate; type: cell-based, Mycobacterium tuberculosis; conditions: 4-stress nonreplicating, Table S4; for Mtb H37Rv NR + CLAV (MIC90): clavulanate 4 μg/mL; for Mtb H37Rv NR (MIC90): no clavulanate
# in vitro [16] = conditions: beagle, dog, plasma
# P. aeruginosa = experiment: Microbial spectrum, P. aeruginosa; type: cell-based, Pseudomonas aeruginosa; conditions: clavulanate 4 μg/mL; Table S4
# [17] = 300 mg/kg sc, uninfected DHP-1 mice
# E. coli = experiment: Microbial spectrum, E. coli; type: cell-based, Escherichia coli; conditions: clavulanate 4 μg/mL; Table S4
# in vitro [18] = conditions: male, CD-1, mouse, plasma, Plasma stability % Remaining
# physchem [19] = conditions: simulated gi fluid, pH 1.2
# C. albicans = experiment: Microbial spectrum, C. albicans; type: cell-based, Candida albicans; conditions: no clavulanate; Table S4
# in vitro [20] = conditions: monkey, plasma
# [21] = Caco-2, pH 7.4, Caco-2 Mean Recovery % A to B
# [22] = Caco-2, pH 7.4, Caco-2 Mean Recovery % B to A
structure (smiles),measurement,setting,value
O=C(CCCC(NC(=O)c1ccc(Cl)cc1Cl)C(=O)O)N[C@@H]1C(=O)N2C(C(=O)O)=C(CSc3cccc[n+]3[O-])CS[C@H]12 (stereo partly shown) [TBBL-0000552],AUC(0-t),in vivo [1],61900 ± 24900 ng·h/mL
same,Cmax,in vivo [1],29900 ± 11000 ng/mL
same,Tmax,in vivo [1],60 to 120 min
same,"remaining at 2 h, 2 μM",in vitro [2],78.6%
same,"Papp A→B at 120 min, 3 μM",in vitro [3],< 0.43 ×10⁻⁶ cm/s
same,"Papp B→A at 120 min, 3 μM",in vitro [3],0.38 ×10⁻⁶ cm/s
same,"recovery at 120 min, 3 μM",in vitro [3]; [21],< 106%
same,"recovery at 120 min, 3 μM",in vitro [3]; [22],123%
same,AUC(0-t),in vivo [4],3660 ng·h/mL
same,Cmax,in vivo [4],6190 ng/mL
same,Tmax,in vivo [4],30 min
same,S.aureus R + CLAV (MIC90),S. aureus,> 100 µM
same,HepG2 LD50,HepG2 cells,74.3 µM
same,"remaining at 2 h, 2 μM",in vitro [5],77.8%
same,"fraction unbound at 4 h, 2 μM",in vitro [6],0.109
same,"fraction unbound at 4 h, 2 μM",in vitro [7],0.417
same,Mtb H37Rv R + CLAV (MIC90),Mtb H37Rv [8],2.9 µM
same,Mtb H37Rv R (MIC90),Mtb H37Rv [8],2.8 µM
same,"fraction unbound at 4 h, 2 μM",in vitro [9],0.439
same,"Log10 CFU per mouse (lungs), Mean",wild-type Mtb H37Rv,9.4 Log10 CFU
same,"remaining at 6 h, 10 μM",physchem [10],111%
same,"remaining at 24 h, 10 μM",physchem [10],106%
same,"fraction unbound at 4 h, 2 μM",in vitro [11],0.143
same,Tlast,[12],3.0 h
same,AUC(0-t),"in vivo [13]; iv, 5 mg/kg",7570 ng·h/mL
same,Vd,"in vivo [13]; iv, 5 mg/kg",0.74 L/kg
same,clearance,"in vivo [13]; iv, 5 mg/kg",11 mL/min/kg
same,half-life,"in vivo [13]; iv, 5 mg/kg",46.8 min
same,k el,"in vivo [13]; iv, 5 mg/kg",0.000247 s⁻¹
same,AUC(0-t),"in vivo [13]; po, 25 mg/kg",42 ng·h/mL
same,bioavailability,"in vivo [13]; po, 25 mg/kg",0.11%
same,"fraction unbound at 4 h, 2 μM",in vitro [14],0.198
same,Mtb H37Rv NR + CLAV (MIC90),Mtb H37Rv [15],2.1 µM
same,Mtb H37Rv NR (MIC90),Mtb H37Rv [15],1.9 µM
same,"remaining at 2 h, 2 μM",in vitro [16],77.9%
same,P.aeruginosa R + CLAV (MIC90),P. aeruginosa,> 100 µM
same,Tlast,[17],4.0 h
same,E.coli R + CLAV (MIC90),E. coli,92.6 µM
same,"remaining at 2 h, 2 μM",in vitro [18],89.4%
same,Caco-2 Rank Papp,Caco-2 cells,Low
same,"remaining at 1 h, 10 μM",physchem [19],105%
same,"remaining at 24 h, 10 μM",physchem [19],61.5%
same,C.albicans R (MIC90),C. albicans,> 100 µM
same,"remaining at 2 h, 2 μM",in vitro [20],119%
CN(C)C(=S)SCC1=C(C(=O)O)N2C(=O)[C@@H](NC(=O)Cc3cccs3)[C@H]2SC1 [TBBL-0000009],AUC(0-t),in vivo [1],8810 ± 675 ng·h/mL
same,Cmax,in vivo [1],2650 ± 266 ng/mL
same,Tmax,in vivo [1],120 to 240 min
same,"remaining at 2 h, 2 μM",in vitro [2],97.9%
same,"Papp A→B at 120 min, 3 μM",in vitro [3],< 0.5 ×10⁻⁶ cm/s
same,"Papp B→A at 120 min, 3 μM",in vitro [3],< 0.43 ×10⁻⁶ cm/s
same,"recovery at 120 min, 3 μM",in vitro [3]; [21],< 98.3%
same,"recovery at 120 min, 3 μM",in vitro [3]; [22],< 103%
same,AUC(0-t),in vivo [4],975 ng·h/mL
same,Cmax,in vivo [4],380 ng/mL
same,Tmax,in vivo [4],30 min
same,S.aureus R + CLAV (MIC90),S. aureus,1 µM
same,HepG2 LD50,HepG2 cells,6.6 µM
same,"remaining at 2 h, 2 μM",in vitro [5],95.8%
same,"fraction unbound at 4 h, 2 μM",in vitro [6],0.022
same,"fraction unbound at 4 h, 2 μM",in vitro [7],0.084
same,Mtb H37Rv R + CLAV (MIC90),Mtb H37Rv [8],4 µM
same,Mtb H37Rv R (MIC90),Mtb H37Rv [8],8 µM
same,"fraction unbound at 4 h, 2 μM",in vitro [9],0.095
same,"Log10 CFU per mouse (lungs), Mean",wild-type Mtb H37Rv,8.7 Log10 CFU
same,reduction of lung CFU compared to untreated control mice,"wild-type Mtb H37Rv; mouse, in vivo",~0.4 log10
same,"remaining at 6 h, 10 μM",physchem [10],85.3%
same,"remaining at 24 h, 10 μM",physchem [10],90.9%
same,"fraction unbound at 4 h, 2 μM",in vitro [11],0.034
same,Tlast,[12],6.0 h
same,AUC(0-t),"in vivo [13]; iv, 5 mg/kg",20300 ng·h/mL
same,Vd,"in vivo [13]; iv, 5 mg/kg",0.18 L/kg
same,clearance,"in vivo [13]; iv, 5 mg/kg",4.25 mL/min/kg
same,half-life,"in vivo [13]; iv, 5 mg/kg",30 min
same,k el,"in vivo [13]; iv, 5 mg/kg",0.000389 s⁻¹
same,AUC(0-t),"in vivo [13]; po, 25 mg/kg",1360 ng·h/mL
same,bioavailability,"in vivo [13]; po, 25 mg/kg",1.33%
same,"fraction unbound at 4 h, 2 μM",in vitro [14],0.047
same,Mtb H37Rv NR + CLAV (MIC90),Mtb H37Rv [15],> 100 µM
same,Mtb H37Rv NR (MIC90),Mtb H37Rv [15],> 100 µM
same,"remaining at 2 h, 2 μM",in vitro [16],104%
same,P.aeruginosa R + CLAV (MIC90),P. aeruginosa,> 100 µM
same,Tlast,[17],4.0 h
same,E.coli R + CLAV (MIC90),E. coli,> 100 µM
same,"remaining at 2 h, 2 μM",in vitro [18],93%
same,Caco-2 Rank Papp,Caco-2 cells,Moderate
same,"remaining at 1 h, 10 μM",physchem [19],31.7%
same,"remaining at 24 h, 10 μM",physchem [19],9.96%
same,C.albicans R (MIC90),C. albicans,> 100 µM
same,"remaining at 2 h, 2 μM",in vitro [20],133%
O=C(Cc1cccs1)N[C@@H]1C(=O)N2C(C(=O)O)=C(CSc3cccc[n+]3[O-])CS[C@H]12 [TBBL-0000001],AUC(0-t),in vivo [1],43000 ± 1680 ng·h/mL
same,Cmax,in vivo [1],29800 ± 7140 ng/mL
same,Tmax,in vivo [1],60 min
same,"remaining at 2 h, 2 μM",in vitro [2],77.3%
same,"Papp A→B at 120 min, 3 μM",in vitro [3],< 0.04 ×10⁻⁶ cm/s
same,"Papp B→A at 120 min, 3 μM",in vitro [3],< 0.03 ×10⁻⁶ cm/s
same,"recovery at 120 min, 3 μM",in vitro [3]; [21],< 93.1%
same,"recovery at 120 min, 3 μM",in vitro [3]; [22],< 99.8%
same,AUC(0-t),in vivo [4],38100 ng·h/mL
same,Cmax,in vivo [4],27800 ng/mL
same,Tmax,in vivo [4],60 min
same,S.aureus R + CLAV (MIC90),S. aureus,0.6 µM
same,HepG2 LD50,HepG2 cells,67.5 µM
same,"remaining at 2 h, 2 μM",in vitro [5],80.6%
same,"fraction unbound at 4 h, 2 μM",in vitro [6],0.369
same,"fraction unbound at 4 h, 2 μM",in vitro [7],0.529
same,Mtb H37Rv R + CLAV (MIC90),Mtb H37Rv [8],1.7 µM
same,Mtb H37Rv R (MIC90),Mtb H37Rv [8],3 µM
same,"fraction unbound at 4 h, 2 μM",in vitro [9],0.374
same,"Log10 CFU per mouse (lungs), Mean",wild-type Mtb H37Rv,8.8 Log10 CFU
same,"remaining at 24 h, 10 μM",physchem [10],114%
same,"fraction unbound at 4 h, 2 μM",in vitro [11],0.22
same,Tlast,[12],3.0 h
same,AUC(0-t),"in vivo [13]; iv, 5 mg/kg",5590 ng·h/mL
same,Vd,"in vivo [13]; iv, 5 mg/kg",0.32 L/kg
same,clearance,"in vivo [13]; iv, 5 mg/kg",7.4 mL/min/kg
same,half-life,"in vivo [13]; iv, 5 mg/kg",30 min
same,k el,"in vivo [13]; iv, 5 mg/kg",0.000389 s⁻¹
same,AUC(0-t),"in vivo [13]; po, 25 mg/kg",111 ng·h/mL
same,bioavailability,"in vivo [13]; po, 25 mg/kg",0.19%
same,"fraction unbound at 4 h, 2 μM",in vitro [14],0.166
same,Mtb H37Rv NR + CLAV (MIC90),Mtb H37Rv [15],2.2 µM
same,Mtb H37Rv NR (MIC90),Mtb H37Rv [15],1.8 µM
same,"remaining at 2 h, 2 μM",in vitro [16],54.7%
same,P.aeruginosa R + CLAV (MIC90),P. aeruginosa,> 100 µM
same,Comments (tolerability),[17],Recovered at t= 8h
same,Tlast,[17],2.0 to 4.0 h
same,E.coli R + CLAV (MIC90),E. coli,26.9 µM
same,"remaining at 2 h, 2 μM",in vitro [18],79.6%
same,Caco-2 Rank Papp,Caco-2 cells,Low
same,"remaining at 1 h, 10 μM",physchem [19],102%
same,"remaining at 24 h, 10 μM",physchem [19],116%
same,C.albicans R (MIC90),C. albicans,> 100 µM
same,"remaining at 2 h, 2 μM",in vitro [20],117%
